The source of these data is patent US5786324A, “Synthetic peptides with bactericidal activity and endotoxin neutralizing activity for gram negative bacteria and methods for their use” (priority 1994, dated 1998).

Like-named read-outs stand apart in the source and are kept apart here. Positions of bridges follow the written chain, without caps; N, C: chain ends. Residues, ends and D or L forms follow the SMILES beside them. No end group written: not given here.

The subject of experiment [1] is Pseudomonas aeruginosa type 1. Format: cell-based. The following applies: pH 5.6; for Effective Dose Bactericidal pH 5.6 P. aeruginosa Molar Concentration: Table 5. As for the experimental part: Bactericidal activity can be evaluated against a variety of bacteria such as Pseudomonas spp including aeruginosa and P. cepacia, E. coli B, and Staphylococcus aureus. The preferred organism is P. aeruginosa. Bactericidal activity is determined by identifying the effective dose for killing as the molar concentration of the peptide which results in at least a 60% killing of the bacteria, as determined by standard methods. Preferably, the peptide has an effective dose at a concentration of about 1×10^-4 M to about 1×10^-10 M, and more preferably 1×10^-7 M to 1×10^-9M . […] The effective dose for bactericidal activity of B/PI is seen at about […] . Bactericidal activity can also be determined by calculating a lethal dose 50 (LD50) using standard methods. The LD50 is that amount of peptide or protein that kills 50% of the bacteria when measured using standard dose response methods. A bactericidal peptide preferably has an LD50 of about 10^-4 M to about 10^-9 M , more preferably about 10^-7 to 10^-9 M .
The synthetically produced peptides were assayed for bactericidal activity against Pseudomonas aeruginosa, type 1, P. cepacia ATCC 25608, E. coli B, and Staphylococcus aureus 502A by standard methods.
Pseudomonas aeruginosa type 1 is a clinical isolate maintained in the laboratory since 1972. The isolate remains a smooth strain and was serotyped by the scheme of Homma. Homma, Jpn. J. Exp. Med., 46:329 (1976). A rough strain E. coli B and S. aureus 502A were obtained from Paul Quie, University of Minnesota. The characteristics of the S. aureus strain have been described in Shinefield et al., Amer. J. Dis. Chil., 105:646 (1963). Pseudomonas cepacia ATCC 25608 was purchased from the American Type Culture Collection in 1980. S. aureus and E. coli were maintained on nutrient agar plates and the Pseudomonas strains were maintained on blood agar plates.
Pyrogen-free solutions were used throughout this assay and all methods which follow. Log phase bacteria were prepared from a culture in brain heart infusion broth as previously described except that bacteria were washed and resuspended in saline with adjustment to an optical density at 650 nm which would yield 3×10^8 CFU/ml. Bacteria were then diluted 1:10 in 0.08M citrate phosphate buffer, pH 5.6 or pH 7.0, for use in the assay. S. aureus rapidly lost viability in the pH 5.6 buffer and was studied only at pH 7.0. Bactericidal activity was determined by dose response and where an LD50 is indicated, it was determined by linear regression.

Another experiment has as its system E. coli 055: B5 LPS. Briefly: Limulus amoebocyte lysate assay, neutralization of endotoxin. Format: biochemical. The following applies: Table 8; LAL. From the text:
The peptide selected can also have endotoxin neutralizing activity. […] Endotoxin neutralizing activity can also be measured by calculating an inhibitory dose 50 […] using standard does response methods. An inhibitory dose 50 is that amount of peptide that can inhibit 50% of the activity of endotoxin. Endotoxin activity can also be measured by determining the amount of release of tumor necrosis factor alpha (TNFα) from a macrophage cell line or by evaluating the symptoms of shock in animals. Peptides preferably neutralized endotoxin at a molar concentration of about 1×10^-4 M to about 10^-8 M , more preferably about 10^-5 M to about 10^-6 M .
The ability of synthetic peptides to neutralize endotoxin was detected with the E-TOXATE kit manufactured by Sigma Chemicals, St. Louis, Mo. […] Peptide was incubated with LPS at room temperature for 10 minutes in 100 μl of a 1:2 dilution of pyrogen-free saline, pH 6.4. The reaction was started by addition of 100 μl of amoebocyte lysate and the final volume was 200 μl.
^a The dose of peptide required to inhibit clotting of LAL by 100%.
Each tube contained 0.04 endotoxin units of E. coli LPS.

Turning to “iktkkflkkt [Peptide 24, reference compound]”, the “% Killing of 5 × 10^6 Bacteria” value in experiment [1] (P. aeruginosa, 3.0 × 10^-5 M) is 72%. The “Effective Dose Bactericidal pH 5.6 P. aeruginosa Molar Concentration” value in experiment [1] was 3.0 × 10^-5 M. In addition, the “Effective Dose Endotoxin Neutralization (Molar Concentration)” value (from here on “Effective Dose Endotoxin Neutralization”) in the experiment on E. coli 055: B5 LPS is “-- (not active at concentrations of 4.5 × 10^-4 M or less)”.

As for kwkaqkrflkc [Peptide 20b], the “% Killing of 5 × 10^6 Bacteria” value in experiment [1] (P. aeruginosa, 3.0 × 10^-6 M) turned out to be 75%. Moreover, the “Effective Dose Bactericidal pH 5.6 P. aeruginosa Molar Concentration” value in experiment [1] is reported as 3.0 × 10^-6 M. Moreover, the “Effective Dose Endotoxin Neutralization” value with E. coli 055: B5 LPS is listed as “-- (not active at concentrations of 4.5 × 10^-4 M or less)”.

In the case of kisgkwkaqk [Peptide 32], the “% Killing of 5 × 10^6 Bacteria” value in experiment [1] (P. aeruginosa, 1.25 × 10^-4 M) was 33%. In addition, the “Effective Dose Bactericidal pH 5.6 P. aeruginosa Molar Concentration” value in experiment [1] is 1.25 × 10^-4 M. The “Effective Dose Endotoxin Neutralization” value in the experiment with E. coli 055: B5 LPS turned out to be 450 µM.

Consider isnanikisg [Peptide 30], for which, in experiment [1], the “Effective Dose Bactericidal pH 5.6 P. aeruginosa Molar Concentration” value was “-- (not active at concentrations of 1.2 × 10^-4 M or less)”. The “Effective Dose Endotoxin Neutralization” value with E. coli 055: B5 LPS came out at 450 µM.

Turning to kkkafrlakq [Peptide 28], the “% Killing of 5 × 10^6 Bacteria” value in experiment [1] (P. aeruginosa, 3.0 × 10^-5 M) amounted to 68%. The “Effective Dose Bactericidal pH 5.6 P. aeruginosa Molar Concentration” value in experiment [1] is 3.0 × 10^-5 M. In addition, in experiment [1] (P. aeruginosa), the “bacterial killing activity compared with parent peptide (in words)” value is listed as “little or no effect”. For the same molecule, the “Effective Dose Endotoxin Neutralization” value in the experiment with E. coli 055: B5 LPS is “-- (not active at concentrations of 4.5 × 10^-4 M or less)”.

With “nanikisgkwkaqkrflkmsgnfdlsi [Peptide 22]”, the “% Killing of 5 × 10^6 Bacteria” value in experiment [1] (P. aeruginosa, 6.0 × 10^-8 M) is 74%. In experiment [1], the “Effective Dose Bactericidal pH 5.6 P. aeruginosa Molar Concentration” value was 6.0 × 10^-8 M. Moreover, the “Effective Dose Endotoxin Neutralization” value in the experiment with E. coli 055: B5 LPS turned out to be 30 µM.

On to wkkfkqralk [Peptide 19], for which the “% Killing of 5 × 10^6 Bacteria” value in experiment [1] (P. aeruginosa, 1.2 × 10^-4 M) stood at 65%. Moreover, the “Effective Dose Bactericidal pH 5.6 P. aeruginosa Molar Concentration” value in experiment [1] was 1.2 × 10^-4 M. For the same molecule, the “bactericidal activity, fold reduced versus the 90-99 peptide” value in experiment [1] (randomized sequence) is on record as 8 fold. For the same molecule, in the experiment with E. coli 055: B5 LPS, the “Effective Dose Endotoxin Neutralization” value was “-- (not active at concentrations of 4.5 × 10^-4 M or less)”.

In the case of flkmsgnfdl [Peptide 34], in experiment [1], the “Effective Dose Bactericidal pH 5.6 P. aeruginosa Molar Concentration” value is recorded as “-- (not active at concentrations of 1.2 × 10^-4 M or less)”. Moreover, the “Effective Dose Endotoxin Neutralization” value in the experiment on E. coli 055: B5 LPS worked out at 750 µM.

Turning to ckisgkwkaqkrflkmsgnfc [Peptide 36], the “% Killing of 5 × 10^6 Bacteria” value in experiment [1] (P. aeruginosa, 1.2 × 10^-4 M) turned out to be 39%. In experiment [1], the “Effective Dose Bactericidal pH 5.6 P. aeruginosa Molar Concentration” value is 1.2 × 10^-4 M. Further, the “Effective Dose Endotoxin Neutralization” value in the experiment with E. coli 055: B5 LPS amounted to 750 µM.

Take `CC(C)C[C@@H]1NC(=O)[C@H](Cc2ccccc2)NC(=O)[C@H](CCCNC(=N)N)NC(=O)[C@H](CCCCN)NC(=O)[C@H](CCC(N)=O)NC(=O)[C@H](C)NC(=O)[C@H](CCCCN)NC(=O)[C@H](Cc2c[nH]c3ccccc23)NC(=O)[C@H](CCCCN)NC(=O)[C@@H](N)CSSC[C@@H](C(=O)O)NC(=O)[C@H](CCCCN)NC1=O` [cyclic 20a]: the “% Killing of 5 × 10^6 Bacteria” value in experiment [1] (type 1, 3.0e-5 M) came to 89%.

For the molecule “ckwkaqkrflkc (CKWKAQKRFLKC; not fully specified (bridges); also: cyclic, kind and places of ring not given here) [Peptide 20a]”, the “% Killing of 5 × 10^6 Bacteria” value in experiment [1] (P. aeruginosa, 3.0 × 10^-6 M) came out at 76%. The “Effective Dose Bactericidal pH 5.6 P. aeruginosa Molar Concentration” value in experiment [1] is given as 3.0 × 10^-6 M. The “Effective Dose Endotoxin Neutralization” value in the experiment with E. coli 055: B5 LPS is recorded as “-- (not active at concentrations of 4.5 × 10^-4 M or less)”.

On to `CSCC[C@H](NC(=O)[C@H](CCCCN)NC(=O)[C@H](CC(C)C)NC(=O)[C@H](Cc1ccccc1)NC(=O)[C@H](CCCNC(=N)N)NC(=O)[C@H](CCCCN)NC(=O)[C@H](CCC(N)=O)NC(=O)[C@H](C)NC(=O)[C@H](CCCCN)NC(=O)[C@H](Cc1c[nH]c2ccccc12)NC(=O)[C@H](CCCCN)NC(=O)[C@@H](N)CS)C(=O)N[C@@H](CO)C(=O)NCC(=O)O` [Peptide 9b, ckwkaqkrflkmsg], for which, in experiment [1] (type 1, 1.5e-6 M), the “% Killing of 5 × 10^6 Bacteria” value is given as 96%.

Consider `CC[C@H](C)[C@H](NC(=O)[C@@H](N)CCCCN)C(=O)N[C@@H](CO)C(=O)NCC(=O)N[C@@H](CCCCN)C(=O)N[C@@H](Cc1c[nH]c2ccccc12)C(=O)N[C@@H](CCCCN)C(=O)N[C@@H](C)C(=O)N[C@@H](CCC(N)=O)C(=O)N[C@@H](CCCCN)C(=O)N[C@@H](CCCNC(=N)N)C(=O)N[C@@H](Cc1ccccc1)C(=O)N[C@@H](CC(C)C)C(=O)N[C@@H](CCCCN)C(=O)O` [Peptide 8a, kisgkwkaqkrflk], for which, in experiment [1] (type 1, 6.0e-6 M), the “% Killing of 5 × 10^6 Bacteria” value is on record as 79%.

Consider `CC[C@H](C)[C@H](NC(=O)[C@H](CCCCN)NC(=O)[C@@H](N)CS)C(=O)N[C@@H](CO)C(=O)NCC(=O)N[C@@H](CCCCN)C(=O)N[C@@H](Cc1c[nH]c2ccccc12)C(=O)N[C@@H](CCCCN)C(=O)N[C@@H](C)C(=O)N[C@@H](CCC(N)=O)C(=O)N[C@@H](CCCCN)C(=O)N[C@@H](CCCNC(=N)N)C(=O)N[C@@H](Cc1ccccc1)C(=O)N[C@@H](CC(C)C)C(=O)N[C@@H](CCCCN)C(=O)O` [Peptide 8b, ckisgkwkaqkrflk], for which the “% Killing of 5 × 10^6 Bacteria” value in experiment [1] (type 1, 1.5e-6 M) is recorded as 88%.

Consider `CSCC[C@H](NC(=O)[C@H](CCCCN)NC(=O)[C@H](CC(C)C)NC(=O)[C@H](Cc1ccccc1)NC(=O)[C@H](CCCNC(=N)N)NC(=O)[C@H](CCCCN)NC(=O)[C@H](CCC(N)=O)NC(=O)[C@H](C)NC(=O)[C@H](CCCCN)NC(=O)[C@H](Cc1c[nH]c2ccccc12)NC(=O)[C@@H](N)CCCCN)C(=O)N[C@@H](CO)C(=O)NCC(=O)O` [Peptide 9a, kwkaqkrflkmsg], for which the “% Killing of 5 × 10^6 Bacteria” value in experiment [1] (type 1, 6.0e-6 M) is on record as 67%.

As for `CC[C@H](C)[C@H](NC(=O)[C@H](CCCCN)NC(=O)[C@@H](N)CSSC[C@H](N)C(=O)N[C@@H](CCCCN)C(=O)N[C@H](C(=O)N[C@@H](CO)C(=O)NCC(=O)N[C@@H](CCCCN)C(=O)N[C@@H](Cc1c[nH]c2ccccc12)C(=O)N[C@@H](CCCCN)C(=O)N[C@@H](C)C(=O)N[C@@H](CCC(N)=O)C(=O)N[C@@H](CCCCN)C(=O)N[C@@H](CCCNC(=N)N)C(=O)N[C@@H](Cc1ccccc1)C(=O)N[C@@H](CC(C)C)C(=O)N[C@@H](CCCCN)C(=O)O)[C@@H](C)CC)C(=O)N[C@@H](CO)C(=O)NCC(=O)N[C@@H](CCCCN)C(=O)N[C@@H](Cc1c[nH]c2ccccc12)C(=O)N[C@@H](CCCCN)C(=O)N[C@@H](C)C(=O)N[C@@H](CCC(N)=O)C(=O)N[C@@H](CCCCN)C(=O)N[C@@H](CCCNC(=N)N)C(=O)N[C@@H](Cc1ccccc1)C(=O)N[C@@H](CC(C)C)C(=O)N[C@@H](CCCCN)C(=O)O` [dimer 8b], in experiment [1] (type 1, 1.5e-6 M), the “% Killing of 5 × 10^6 Bacteria” value came out at 52%.

For the molecule `CC[C@H](C)[C@@H]1NC(=O)[C@H](CCCCN)NC(=O)[C@@H](N)CSSC[C@@H](C(=O)O)NC(=O)[C@H](Cc2ccccc2)NC(=O)[C@H](CC(N)=O)NC(=O)CNC(=O)[C@H](CO)NC(=O)[C@H](CCSC)NC(=O)[C@H](CCCCN)NC(=O)[C@H](CC(C)C)NC(=O)[C@H](Cc2ccccc2)NC(=O)[C@H](CCCNC(=N)N)NC(=O)[C@H](CCCCN)NC(=O)[C@H](CCC(N)=O)NC(=O)[C@H](C)NC(=O)[C@H](CCCCN)NC(=O)[C@H](Cc2c[nH]c3ccccc23)NC(=O)[C@H](CCCCN)NC(=O)CNC(=O)[C@H](CO)NC1=O` [cyclic 36] (H-CKISGKWKAQKRFLKMSGNFC-OH; disulfide 1-21), the “% Killing of 5 × 10^6 Bacteria” value in experiment [1] (type 1, 1.5e-7 M) worked out at 76%.

In the case of `CC(C)C[C@@H]1NC(=O)[C@H](Cc2ccccc2)NC(=O)[C@H](CCCCN)NC(=O)[C@@H](NC(=O)[C@H](CCCCN)NC(=O)[C@@H](NC(=O)[C@@H](N)CCCCN)[C@@H](C)O)CSSC[C@@H](C(=O)O)NC(=O)[C@H](CCCCN)NC(=O)[C@H](CCCCN)NC1=O` [cyclic 25, reference compound] (H-KTKCKFLKKC-OH; disulfide 4-10), the “% Killing of 5 × 10^6 Bacteria” value in experiment [1] (type 1, 1.5e-5 M) is listed as 73%.
